PubChem BioAssay AID1963861 (Molecular Pharmacology Branch, DTP, NCI, 2024)

System: 885724-159-R-J1-PDC KRAS PDC multicell spheroid viability
Assay: Anticancer human tumor 885724-159-R-J1-PDC patient-derived pancreatic adenocarcinoma cell line growth inhibition [KRAS2]
Settings: for IC50: curve of first compound; for viability, T/C: stronger effect = lower value
How it was run: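 KRAS-mutant tumor cells were grown as spheroids with HUVEC endothelial cells and human MSCs as stroma. Targeted agents were tested alone and with KRAS pathway inhibitors. Doses started at or near clinical Cmax, or 10 microM, descending half-log.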

[1] = second compound 0.1 µM, first compound 0.0316 µM
[2] = second compound 0.1 µM, first compound 0.1 µM
[3] = second compound 0.1 µM, first compound 0.316 µM
[4] = second compound 0.1 µM, first compound 1 µM
[5] = second compound 0.1 µM, first compound 3.16 µM
[6] = second compound 0.1 µM, first compound 10 µM
[7] = second compound 0.316 µM, first compound 0.0316 µM
[8] = second compound 0.316 µM, first compound 0.1 µM
[9] = second compound 0.316 µM, first compound 0.316 µM
[10] = second compound 0.316 µM, first compound 1 µM
[11] = second compound 0.316 µM, first compound 3.16 µM
[12] = second compound 0.316 µM, first compound 10 µM
[13] = second compound 1 µM, first compound 0.0316 µM
[14] = second compound 1 µM, first compound 0.1 µM
[15] = second compound 1 µM, first compound 0.316 µM
[16] = second compound 1 µM, first compound 1 µM
[17] = second compound 1 µM, first compound 3.16 µM
[18] = second compound 1 µM, first compound 10 µM
[19] = second compound 3.16 µM, first compound 0.0316 µM
[20] = second compound 3.16 µM, first compound 0.1 µM
[21] = second compound 3.16 µM, first compound 0.316 µM
[22] = second compound 3.16 µM, first compound 1 µM
[23] = second compound 3.16 µM, first compound 3.16 µM
[24] = second compound 3.16 µM, first compound 10 µM
[25] = second compound 10 µM, first compound 0.0316 µM
[26] = second compound 10 µM, first compound 0.1 µM
[27] = second compound 10 µM, first compound 0.316 µM
[28] = second compound 10 µM, first compound 1 µM
[29] = second compound 10 µM, first compound 3.16 µM
[30] = second compound 10 µM, first compound 10 µM
[31] = second compound 0.1 µM, first compound 0.01 µM
[32] = second compound 0.316 µM, first compound 0.01 µM
[33] = second compound 1 µM, first compound 0.01 µM
[34] = second compound 3.16 µM, first compound 0.01 µM
[35] = second compound 10 µM, first compound 0.01 µM
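Also: spheroids exposed to agents for 7 days before readout.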

| Structure (SMILES) | IC50 (second compound 0.1 µM) | IC50 (second compound 0.316 µM) | IC50 (second compound 1 µM) | IC50 (second compound 3.16 µM) | IC50 (second compound 10 µM) | viability, T/C [1] | viability, T/C [2] | viability, T/C [3] | viability, T/C [4] | viability, T/C [7] | viability, T/C [8] | viability, T/C [9] | viability, T/C [10] | viability, T/C [13] | viability, T/C [14] | viability, T/C [15] | viability, T/C [16] | viability, T/C [19] | viability, T/C [20] | viability, T/C [21] | also measured |
| --- | --- | --- | --- | --- | --- | --- | --- | --- | --- | --- | --- | --- | --- | --- | --- | --- | --- | --- | --- | --- | --- |
| CC(C)NCC(C(=O)N1CCN(c2ncnc3c2C(C)CC3O)CC1)c1ccc(Cl)cc1 (stereo not given) + C=CC(=O)N1CCN(c2nc(=O)n(-c3c(C)ccnc3C(C)C)c3nc(-c4c(O)cccc4F)c(F)cc23)C(C)C1 | > 10000 nM | > 10000 nM | > 10000 nM | 3780 nM | 175 nM | 111% | 88% | 80.3% | 77.5% | 103% | 93.6% | 74.1% | 80.5% | 105% | 92.9% | 83.5% | 79.8% | 99.9% | 90.2% | 77.8% | viability, T/C [5]: 79.4%; viability, T/C [6]: 64.9%; viability, T/C [11]: 77.9%; viability, T/C [12]: 60.8%; viability, T/C [17]: 71.8%; viability, T/C [18]: 50.1%; viability, T/C [22]: 68.3%; viability, T/C [23]: 57.9%; viability, T/C [24]: 31.8%; viability, T/C [25]: 73.5%; viability, T/C [26]: 68.8%; viability, T/C [27]: 30%; viability, T/C [28]: 11.5%; viability, T/C [29]: 18.8%; viability, T/C [30]: 5.87% |
| CC1COCCN1c1cc(-c2ccnn2C)c2ccnc(-c3ccn[nH]3)c2n1 (stereo not given) + C=CC(=O)N1CCN(c2nc(=O)n(-c3c(C)ccnc3C(C)C)c3nc(-c4c(O)cccc4F)c(F)cc23)C(C)C1 | > 3160 nM | 2780 nM | 2410 nM | > 3160 nM | 222 nM | 92.4% | 69.2% | 56.2% | 49.2% | 84.6% | 68.2% | 58.3% | 49% | 83.8% | 66.9% | 60.2% | 47.8% | 92.1% | 66.2% | 58.9% | viability, T/C [31]: 111%; viability, T/C [5]: 55.2%; viability, T/C [32]: 104%; viability, T/C [11]: 51.5%; viability, T/C [33]: 106%; viability, T/C [17]: 51.4%; viability, T/C [34]: 93.7%; viability, T/C [22]: 49.4%; viability, T/C [23]: 54.1%; viability, T/C [35]: 71.7%; viability, T/C [25]: 65.7%; viability, T/C [26]: 55.9%; viability, T/C [27]: 46.7%; viability, T/C [28]: 45.6%; viability, T/C [29]: 42.7% |
| CCN1CCN(Cc2ccc(Nc3ncc(F)c(-c4cc(F)c5nc(C)n(C(C)C)c5c4)n3)nc2)CC1 + C=CC(=O)N1CCN(c2nc(=O)n(-c3c(C)ccnc3C(C)C)c3nc(-c4c(O)cccc4F)c(F)cc23)C(C)C1 | > 1000 nM | > 1000 nM | > 1000 nM | > 1000 nM | > 1000 nM | 99.3% | 92.6% | 87.2% | 92.6% | 102% | 95.1% | 101% | 107% | 106% | 101% | 106% | 104% | 104% | 101% | 110% | viability, T/C (second compound 0.1 µM, first compound 0.00316 µM): 116%; viability, T/C [31]: 98.6%; viability, T/C (second compound 0.316 µM, first compound 0.00316 µM): 114%; viability, T/C [32]: 104%; viability, T/C (second compound 1 µM, first compound 0.00316 µM): 112%; viability, T/C [33]: 116%; viability, T/C (second compound 3.16 µM, first compound 0.00316 µM): 114%; viability, T/C [34]: 122%; viability, T/C [22]: 114%; viability, T/C (second compound 10 µM, first compound 0.00316 µM): 72.6%; viability, T/C [35]: 84.2%; viability, T/C [25]: 84.8%; viability, T/C [26]: 85%; viability, T/C [27]: 88.8%; viability, T/C [28]: 80.2% |
| CCNC(=O)CC1N=C(c2ccc(Cl)cc2)c2cc(OC)ccc2-n2c(C)nnc21 (stereo not given) + C=CC(=O)N1CCN(c2nc(=O)n(-c3c(C)ccnc3C(C)C)c3nc(-c4c(O)cccc4F)c(F)cc23)C(C)C1 | > 10000 nM | 6680 nM | > 10000 nM | 2220 nM | 352 nM | 109% | 95.6% | 86.3% | 65.6% | 105% | 94.4% | 77.6% | 61.3% | 116% | 89.6% | 66.3% | 63.9% | 105% | 90.5% | 66.3% | viability, T/C [5]: 57%; viability, T/C [6]: 52.7%; viability, T/C [11]: 55.3%; viability, T/C [12]: 47.2%; viability, T/C [17]: 51.1%; viability, T/C [18]: 51.8%; viability, T/C [22]: 51.8%; viability, T/C [23]: 51.8%; viability, T/C [24]: 45.9%; viability, T/C [25]: 78%; viability, T/C [26]: 66%; viability, T/C [27]: 48.2%; viability, T/C [28]: 43.1%; viability, T/C [29]: 39.2%; viability, T/C [30]: 33.6% |
